Experimental findings from US7427663B2, “Cardio myopeptidin, the production and the use thereof” (Dalian Zhen-Ao Pharmaceutical Co., Ltd., priority 2003, dated 2008) are described below.

Data set [1] deals with succinic dehydrogenase of primarily cultured myocardial cells. Put plainly: Influence of each peak of cardio myopeptidin on enzyme activity of myocardial cells (MTT method). The class given is cell-based. The conditions noted are these: Adriamycin damage group; normal control 0.344. The source says: Polypeptide content in cardio myopeptidin is 75-90[…], free amino acids content is 6-15[…], and there is a little nucleic acid and microelement.
Background: Tetrazolium assays rely on reduction of a dye to a coloured formazan, in cell work by metabolically active cells.

The test system of data set [2] is myocardial cells. Put plainly: Influence of pH and time on activity of cardio myopeptidin (MTT method). The class given is cell-based. The following applies: Adriamycin damage group, without cardio myopeptidin; normal control 0.691.
The test system of data set [3] is myocardial ischemia in cats. Put plainly: Epicardium electrocardiogram of cats with persistent myocardial ischemia, therapeutic administration. The format is in vivo. The following applies: cat, 2.0 mg/Kg i.v.
Data set [4] relates to myocardial ischemia-reperfusion in rats. Put plainly: Plasma FFA content of rats with ischemia-reperfusion. The format is in vivo. The following applies: rat I-R, 2.0 mg/kg. The protocol: (§1) By reference to literature methods, sublingually administer cardio myopeptidin or the reference drug through intravenous injection after rat's coronary artery LAD is ligated for 5 minutes; loosen the ligature after 10 minutes of myocardial ischemia, and reperfusion for 30 min, and simultaneously record II-lead ECG. Blood is taken from the abdominal aorta after the completion of reperfusion, and the heart is perfused and fixed with 6% glutaraldehyde and 0.1 M sodium cacodylate buffer for 2 hours after it is perfused and cleaned with physiological saline water through the aorta. Then the ischemic cardiac muscle from the left frontal wall is picked and cut into 1 mm^3 slices. The slices are immersed in 4% glutaraldehyde and 0.1 M sodium cacodylate buffer to be fixed for the preparation of electron microscope specimens. Slice the specimen of each cardiac muscle after fixation with osmic acid, serial dehydration with acetone, embedment and polymerization with epoxy resin 618, and for each cardiac muscle, cut 4 embedded pieces. Randomly take 20 photos for each group of cardiac muscle of animals with the negative magnification equal to 12000. Observe the change in the ultrastructure, and classify and determine the value according to categories of pathologic changes and severity of damage of mitochondrion, myocardial fiber and other components. […]

In data set [5] the test system is myocardial oxygen metabolism in dogs. Put plainly: Myocardial oxygen consumption and oxygen uptake in anesthetized dogs. The class given is in vivo. The conditions noted are these: dog, i.v. 2 mg/kg. The source says:
Anesthetize dogs with sodium pentobarbital. Conduct endotracheal intubation and artificial respiration, and use an RM-86 polygraph to monitor electrocardiogram and aortic pressure. Open the thoracic cavity from the left side to expose the heart. Intubate a cannula from the apex of the heart to the left ventricle, and record the pressure of the left ventricle and pressure change rate (±dp/dt max). In order to know the change in circulation of the coronary artery and myocardial oxygen metabolism, separate the left circumflex branch of the coronary artery of dogs, use an electromagnetic flowmeter to measure the flow of coronary artery, and calculate the resistance against the coronary artery. Intubate a cannula from the external jugular vein of dogs to the […]. Simultaneously draw the arterial blood and the coronary sinus blood. Use a blood gas analyzer (Model ABL-3, Denmark) to determine blood oxygen content, and calculate myocardial oxygen uptake and myocardial oxygen consumption. Keep the arterial blood pH, CO2 and partial pressure of oxygen of dogs within normal range. The dose of MTP is 2.5 and 10 mg/kg, and the interval between two doses is 30 min. Continuously record various parameters after administration until they return to the control value. Take arterial blood and coronary sinus blood at 2, 5, 10 and 30 minutes after administration. Determine blood gas content, calculate myocardial oxygen uptake and myocardial oxygen consumption, and observe the effect of MTP on myocardial oxygen metabolism.

Data set [6] deals with cardiac muscle of ischemia-reperfusion in rats. Put plainly: Damage of myocardial ultrastructure caused by ischemia-reperfusion, electron microscope semi-quantitative assay. The class given is in vivo. The following applies: rat, 2.0 mg/Kg i.v. The protocol: as §1
Data set [7] has as its system isolated rat heart with myocardial ischemia-reperfusion. Put plainly: Langendorff isolated rat heart, CPK and LDH of coronary effluent. The following applies: 1 μg/ml. Here is the method:
(2) Refer to literature methods to make Langendorff's cardiac hypoxia-reoxygenation damage animal model of isolated rat heart. Conduct Langendorff's perfusion with K—H liquid with high Ca2+ and low K+ and persistent filling of mixed gas. Hook two platinum filaments on the apex of heart and the root of the left cardiac atrium respectively, and record the electrocardiogram. Ligate LAD for 10 min and loosen for 15 min. Conduct perfusion with K—H liquid with corresponding concentrations of cardio myopeptidin from 5 min before ligation to 5 min after loosening for the cardio myopeptidin-treated group. Determine the related indexes of effluent before and after 8 min of ligation and 2 min after loosening respectively. […]

Data set [8] deals with myocardial infarction in pigs. Put plainly: Myocardial infarction in miniature pigs (coronary ligation). The format is in vivo. The following applies: pig, phleboclysis 0.25 mg/kg. Here is the method:
Anesthetize a healthy, grown male miniature pig with the body weight of 20.9±4.0 kg with 30 mg/kg of 3% sodium pentobarbital through auditory intravenous injection. Connect the tracheal cannula to a SC-3 electro-respirator to perform artificial positive pressure respiration. Open the thoracic cavity from the third rib at the left side to expose the heart. Separate the anterior descending branch of the coronary artery (about ⅓ distant from the apex of heart), and put a silk thread 0^□ beneath it for ligation. Place a multi-point fixed type epicardium electrode with 20 points on the myocardial surface under the ligature. Record the myocardial electrical signals on an RTA-1200 model hot-wave recorder of a RM-6300 model eight-lead polygraph through a ZYS1-I model numerical control epicardium scanner and AB-601G bioelectric amplifier, and 1 mV standard voltage is equal to 1 mm. Under the control of the automatic timer, measure the change in the electrocardiogram at those 20 points. Intubate a cannula from the femoral artery to the abdominal aorta, and connect it to a AP-641G blood pressure amplifier through a TP-400T model pressotransduer to measure the mean blood pressure (MBP). […]

Data set [9] concerns myocardial ischemia-reperfusion in rats. Put plainly: Cardiac muscle and plasma CPK, LDH, MDA of rats with ischemia-reperfusion, prophylactic administration. The class given is in vivo. The following applies: rat I-R. The protocol: (1) Refer to literature methods to make myocardial ischemia-reperfusion damage animal model. Ligate the left anterior descending branch of the coronary artery of rats for 10 minutes after MTP or verapamil (Ver) is sublingually administered through intravenous injection for 5 min, perfuse for 30 min. Continuously observe II-lead ECG through a polygraph. Take 2 ml left heart blood after the completion of reperfusion, and take the cardiac muscle at the cardiac apex of the left ventricle after the heart is perfused through the aorta. […] Grouping of the experiment: In the experiment, the rats are divided into seven groups: pseudo-operation control group (P); ischemia-reperfusion group (ischemia-reperfusion, I-R); ischemia-reperfusion+normal saline group (I-R+N.S); ischemia-reperfusion +0.5, 2.0 or 10.0 mg/Kg cardio myopeptidin groups (I-R+MTP) and ischemia-reperfusion +1.0 mg/Kg verapamil group (I-R+Ver), 8-10 animals in each group.

The structures appear in SMILES notation.

As for `COc1cccc2c1C(=O)c1c(O)c3c(c(O)c1C2=O)C[C@@](O)(C(=O)CO)C[C@@H]3O[C@H]1C[C@H](N)[C@H](O)[C@H](C)O1` [Adriamycin], the “OD value (MTT method)” value in data set [1] turned out to be 0.272 ± 0.015; in data set [2], 0.274 ± 0.011.

As for `CC(C)NCC(O)COc1cccc2ccccc12` (stereo not drawn) [propranolol], in data set [3] (ischemia group 11.1), the ΣNST turned out to be 6.17 ± 1.5 Num. This compound also had a ΣΔST in data set [3] (ischemia group 40.5) of 22.8 ± 6.4 mV. Also, in data set [4], the “FFA (plasma)” value worked out at 77.1 ± 6.4 μmol/100 ml. Also, the “myocardial oxygen consumption (MVO2), change value after administration” value was −31.0 ± 13 % in [5] (2 min), −30.0 ± 13 % in [5] (5 min), −33.0 ± 10 % in data set [5] (10 min) and −32.0 ± 14 % in data set [5] (30 min). Moreover, the “myocardial oxygen uptake (O2 ext), change value after administration” value in data set [5] (2 min) is given as −3.00 ± 1.0%; in data set [5] (5 min) it was 3.00 ± 7.0%; in [5] (10 min), 3.00 ± 8.0%; in [5] (30 min) it was 3.00 ± 9.0%. In addition, in [6], the “Value of pathological changes ± SD” value was 0.71 ± 0.84.

`COc1ccc(CCN(C)CCCC(C#N)(c2ccc(OC)c(OC)c2)C(C)C)cc1OC` (stereo not drawn) [verapamil]: in data set [7] (during ischemia), the “Coronary effluent CPK” value was 16.2 ± 2.8 U/L and the “Coronary effluent LDH” value was determined as 13.0 ± 0.62 U/L. Besides, in [7] (perfusion), the “Coronary effluent CPK” value stood at 16.0 ± 1.8 U/L and the “Coronary effluent LDH” value was determined as 14.3 ± 0.95 U/L. Also, in data set [7] (prior ischemia), the “Coronary effluent CPK” value turned out to be 16.3 ± 2.0 U/L and the “Coronary effluent LDH” value worked out at 11.4 ± 0.78 U/L. In data set [8], this compound showed an Infarction range of 12.5 ± 3.4 %. Moreover, in data set [9] (1.0 mg/Kg), the “Cardiac muscle LDH” value was 75.1 ± 23 u/mg pro, the “Cardiac muscle MDA” value is recorded as 66.6 ± 19.8 nmol/100 mg pro, the “Plasma LDH” value worked out at 46.7 ± 8.8 u/ml and the “Plasma MDA” value is 24.9 ± 6.6 nmol/mL. In data set [9] (1.0 mg/kg), the “Cardiac muscle CPK” value was determined as 886 ± 115 u/100 mg pro and the “Plasma CPK” value was 192 ± 60 u/100 ml.
